How the values were obtained:
[1] = target: T1, DGKα (hDGKalpha(1-735)-N-His) (Homo sapiens, UniProt P23743); test: In vitro DGK inhibition assay, DGKalpha ADP Glo (in house); type: biochemical; conditions: 4 nM DGKα, 25 μM ATP, 125 uM DLG in liposomes, 1 hour reaction
T1 construct: hDGKalpha(1-735)-N-His; His (N); made in house; host or cells: Sf21 insect cells (baculovirus)
Summary of the method: (§1)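 ADP-Glo luminescence measured ADP formed over 1 h by Sf21-expressed full-length human enzymes: DGKα at 4 nM with 25 µM ATP, DGKζ at 2 nM with 50 µM ATP, both on 125 µM DLG in PS/PC liposomes. Dose–response used 11 threefold dilutions at 2% final DMSO.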

[2] = target: T2, DGKζ (hDGKzeta(1-928)-N-His) (Homo sapiens, UniProt Q13574); test: In vitro DGK inhibition assay, DGKzeta ADP Glo (in house); type: biochemical; conditions: 2 nM DGKζ, 50 μM ATP, 125 uM DLG in liposomes, 1 hour reaction
T2 construct: hDGKzeta(1-928)-N-His; His (N); made in house; host or cells: Sf21 insect cells (baculovirus)
Summary of the method: as §1

primary human T-cells = test: Proliferation assay (5 days, CellTiter-Glo, CD3-stimulated T-cells); type: cell-based; conditions: for Emax proliferation (% activation): CD3 condition, normalised to DMSO (neutral) and 20 μM reference compound A1 = 100%; for EC50: Homo sapiens, T-cell, 120 h, CD3-stimulated primary human T-cells, 5 days, CellTiter-Glo, fitted sigmoidal curve, read-out: Tcell Proliferation CD3 EC50
Summary of the method: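 Proliferation read-out: ATP luminescence (CellTiter-Glo 2.0) at day 5 in expanded primary human T-cells on CD3 antibody-coated plates, with PBS-only plates as a counter screen. Compounds in 5–6 pt series (factor 3.333, top 20 or 10 μM final). Values are normalized to DMSO (neutral) and 20 μM reference A1 (100%), from sigmoidal fits.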

T2 sequence (Q13574 whole entry): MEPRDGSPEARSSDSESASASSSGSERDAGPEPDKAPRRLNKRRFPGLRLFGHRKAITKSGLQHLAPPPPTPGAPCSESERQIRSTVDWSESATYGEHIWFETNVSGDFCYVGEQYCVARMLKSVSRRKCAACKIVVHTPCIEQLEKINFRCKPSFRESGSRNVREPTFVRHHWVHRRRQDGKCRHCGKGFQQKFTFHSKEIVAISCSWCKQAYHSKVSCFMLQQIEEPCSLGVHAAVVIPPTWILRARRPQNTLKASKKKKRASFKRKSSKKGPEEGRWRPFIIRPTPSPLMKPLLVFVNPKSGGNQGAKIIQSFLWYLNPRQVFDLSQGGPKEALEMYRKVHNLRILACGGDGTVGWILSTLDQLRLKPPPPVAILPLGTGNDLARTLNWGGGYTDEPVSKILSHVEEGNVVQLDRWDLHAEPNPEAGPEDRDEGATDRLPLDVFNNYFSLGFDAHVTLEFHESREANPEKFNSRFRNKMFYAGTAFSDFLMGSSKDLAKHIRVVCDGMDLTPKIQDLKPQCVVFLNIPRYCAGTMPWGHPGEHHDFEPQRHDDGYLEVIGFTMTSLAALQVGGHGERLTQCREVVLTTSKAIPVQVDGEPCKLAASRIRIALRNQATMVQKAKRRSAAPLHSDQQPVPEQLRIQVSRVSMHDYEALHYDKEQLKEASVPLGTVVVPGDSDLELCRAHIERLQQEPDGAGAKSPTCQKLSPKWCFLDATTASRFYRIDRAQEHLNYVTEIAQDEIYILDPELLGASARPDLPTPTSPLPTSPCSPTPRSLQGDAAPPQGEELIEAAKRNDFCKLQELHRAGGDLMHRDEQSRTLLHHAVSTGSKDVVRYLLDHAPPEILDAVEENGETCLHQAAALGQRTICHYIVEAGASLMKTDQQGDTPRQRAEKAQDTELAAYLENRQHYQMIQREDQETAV
T1 sequence (P23743 whole entry): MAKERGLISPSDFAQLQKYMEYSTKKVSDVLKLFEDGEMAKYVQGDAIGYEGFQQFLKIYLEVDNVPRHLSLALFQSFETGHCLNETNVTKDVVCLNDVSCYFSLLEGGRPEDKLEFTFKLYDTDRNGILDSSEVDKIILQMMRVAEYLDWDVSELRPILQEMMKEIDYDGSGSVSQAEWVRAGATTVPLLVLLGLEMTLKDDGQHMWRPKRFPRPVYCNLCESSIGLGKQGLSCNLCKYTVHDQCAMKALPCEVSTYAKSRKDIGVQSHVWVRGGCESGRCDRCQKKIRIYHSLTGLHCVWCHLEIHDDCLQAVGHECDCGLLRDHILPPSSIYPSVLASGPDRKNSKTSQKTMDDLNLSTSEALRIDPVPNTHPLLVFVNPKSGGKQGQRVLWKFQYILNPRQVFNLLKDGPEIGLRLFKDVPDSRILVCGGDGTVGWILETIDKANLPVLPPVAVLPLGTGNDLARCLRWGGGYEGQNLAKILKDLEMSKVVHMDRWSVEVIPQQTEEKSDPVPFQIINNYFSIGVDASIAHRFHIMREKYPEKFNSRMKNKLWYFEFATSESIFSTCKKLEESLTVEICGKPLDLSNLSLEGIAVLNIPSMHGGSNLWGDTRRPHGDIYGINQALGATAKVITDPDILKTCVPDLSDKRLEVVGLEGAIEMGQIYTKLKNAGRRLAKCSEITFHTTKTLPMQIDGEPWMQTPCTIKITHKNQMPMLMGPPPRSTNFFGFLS

In the case of COC(=O)N1CC(c2nnc(-c3ccc4c(c3)N(Cc3ccc(-c5ccc(C(F)(F)F)cc5)nc3)C(=O)[C@@H](N)CS4(=O)=O)o2)CC(F)(F)C1 (stereo partly drawn) [Example 57, methyl 3,3-difluoro-5-[5-[(3R)-3-amino-1,1,4-trioxo-5-[[6-[4-(trifluoromethyl)phenyl]-3-pyridyl]methyl]-2,3-dihydro-1λ^6,5-benzothiazepin-7-yl]-1,3,4-oxadiazol-2-yl]piperidine-1-carboxylate], the IC50 [1] is reported as 3340 nM, the IC50 [2] is reported as 2340 nM and the “Emax proliferation (% activation)” value (primary human T-cells) is reported as 181 % activation. The EC50 (primary human T-cells) was 567 nM.
COC(=O)N1CC2CC(c3nnc(-c4ccc5c(c4)N(Cc4ccc(-c6ccc(C(F)(F)F)cc6)nc4)C(=O)[C@@H](N)CS5(=O)=O)o3)(C2)C1 [Example 58, methyl 1-[5-[(3R)-3-amino-1,1,4-trioxo-5-[[6-[4-(trifluoromethyl)phenyl]-3-pyridyl]methyl]-2,3-dihydro-1λ^6,5-benzothiazepin-7-yl]-1,3,4-oxadiazol-2-yl]-3-azabicyclo[3.1.1]heptane-3-carboxylate] was tested, and the IC50 [1] was 26400 nM, the IC50 [2] was 2140 nM and the “Emax proliferation (% activation)” value (primary human T-cells) was 114 % activation. For the same compound, the EC50 (primary human T-cells) was 531 nM.
N#CC1(c2nnc(-c3ccc4c(c3)N(Cc3ccc(-c5ccc(C(F)(F)F)cn5)cc3)C(=O)[C@@H](N)CS4(=O)=O)o2)CC1 [Example 62, 1-[5-[(3R)-3-amino-1,1,4-trioxo-5-[[4-[5-(trifluoromethyl)-2-pyridyl]phenyl]methyl]-2,3-dihydro-1λ^6,5-benzothiazepin-7-yl]-1,3,4-oxadiazol-2-yl]cyclopropane-carbonitrile] was tested, and the IC50 [1] was over 19800 nM, the IC50 [2] was 1500 nM and the “Emax proliferation (% activation)” value (primary human T-cells) was 101 % activation. It also gave an EC50 (primary human T-cells) of 1570 nM.
With CCOC(F)(c1nnc(-c2ccc3c(c2)N(Cc2ccc(-c4noc(C(F)(F)F)n4)cc2)C(=O)[C@@H](N)CS3(=O)=O)o1)C(F)(F)F (stereo partly drawn) [Example 64, (3R)-3-amino-7-[5-(1-ethoxy-1,2,2,2-tetrafluoro-ethyl)-1,3,4-oxadiazol-2-yl]-1,1-dioxo-5-[[4-[5-(trifluoromethyl)-1,2,4-oxadiazol-3-yl]phenyl]methyl]-2,3-dihydro-1λ^6,5-benzothiazepin-4-one] the IC50 [1] was 1960 nM, the IC50 [2] was 2790 nM and the “Emax proliferation (% activation)” value (primary human T-cells) was 132 % activation. It also gave an EC50 (primary human T-cells) of 20.8 nM.
With N[C@H]1CS(=O)(=O)c2ccc(-c3nnc(N4CCC(F)(F)CC4)o3)cc2N(Cc2ccc(-c3noc(C(F)(F)F)n3)cc2)C1=O [Example 68, (3R)-3-amino-7-[5-(4,4-difluoro-1-piperidyl)-1,3,4-oxadiazol-2-yl]-1,1-dioxo-5-[[4-[5-(trifluoromethyl)-1,2,4-oxadiazol-3-yl]phenyl]methyl]-2,3-dihydro-1λ^6,5-benzothiazepin-4-one] the IC50 [1] was 2640 nM, the IC50 [2] was 625 nM and the “Emax proliferation (% activation)” value (primary human T-cells) was 104 % activation. The EC50 (primary human T-cells) was 26.1 nM.
In the case of N[C@H]1CS(=O)(=O)c2ccc(-c3nnc(N4CCOC(F)(F)C4)o3)cc2N(Cc2ccc(-c3nnc(C(F)(F)F)o3)cc2)C1=O [Example 80], the IC50 [1] is reported as 11800 nM, the IC50 [2] is reported as 1260 nM and the “Emax proliferation (% activation)” value (primary human T-cells) is reported as 130 % activation. The EC50 (primary human T-cells) was 402 nM.
In the case of CC(C)(C#N)c1nnc(-c2cc3c(cc2F)S(=O)(=O)C[C@H](N)C(=O)N3Cc2ccc(-c3ccc(C(F)(F)F)cn3)cc2)o1 [Example 88, 2-[5-[(3R)-3-amino-8-fluoro-1,1,4-trioxo-5-[[4-[5-(trifluoromethyl)-2-pyridyl]phenyl]methyl]-2,3-dihydro-1λ^6,5-benzothiazepin-7-yl]-1,3,4-oxadiazol-2-yl]-2-methyl-propanenitrile], the IC50 [1] is reported as 762 nM, the IC50 [2] is reported as 183 nM and the “Emax proliferation (% activation)” value (primary human T-cells) is reported as 106 % activation. For the same compound, the EC50 (primary human T-cells) was 45.1 nM.
For CC(C)(C)c1nnc(-c2ccc3c(c2)N(Cc2ccc(-n4nnc(C(F)(F)F)n4)cc2)C(=O)[C@@H](N)CS3(=O)=O)o1 [Example 90, (3R)-3-amino-7-(5-tert-butyl-1,3,4-oxadiazol-2-yl)-1,1-dioxo-5-[[4-[5-(trifluoromethyl)tetrazol-2-yl]phenyl]methyl]-2,3-dihydro-1λ^6,5-benzothiazepin-4-one], the IC50 [1] was 23900 nM, the IC50 [2] was 2140 nM and the “Emax proliferation (% activation)” value (primary human T-cells) was 152 % activation. It also gave an EC50 (primary human T-cells) of 344 nM.
In the case of Cn1nc(C(F)(F)F)cc1-c1ccc(CN2C(=O)[C@@H](N)CS(=O)(=O)c3ccc(-c4nnc(C(C)(C)C)o4)cc32)cc1 [Example 92], the IC50 [1] is reported as 17500 nM, the IC50 [2] is reported as 1710 nM and the “Emax proliferation (% activation)” value (primary human T-cells) is reported as 170 % activation. For the same compound, the EC50 (primary human T-cells) was 835 nM.
CC(C)(C)c1nnc(-c2ccc3c(c2)N(Cc2ccc(-c4ncc(C(F)(F)F)o4)cc2)C(=O)[C@@H](N)CS3(=O)=O)o1 [Example 93, (3R)-3-amino-7-(5-tert-butyl-1,3,4-oxadiazol-2-yl)-1,1-dioxo-5-[[4-[5-(trifluoromethyl)oxazol-2-yl]phenyl]methyl]-2,3-dihydro-1λ^6,5-benzothiazepin-4-one] was tested, and the IC50 [1] was 884 nM, the IC50 [2] was 485 nM and the “Emax proliferation (% activation)” value (primary human T-cells) was 104 % activation. It also gave an EC50 (primary human T-cells) of 120 nM.
For NC(c1nnc(-c2ccc3c(c2)N(Cc2ccc(-c4noc(C(F)(F)F)n4)cc2)C(=O)[C@@H](N)CS3(=O)=O)o1)C(F)(F)F (stereo partly shown) [Example 94], the IC50 [1] was over 60000 nM, the IC50 [2] was 9190 nM and the “Emax proliferation (% activation)” value (primary human T-cells) was 42 % activation. For the same compound, the EC50 (primary human T-cells) was over 10000 nM.
CCC(O)(c1nnc(-c2ccc3c(c2)N(Cc2ccc(-c4noc(C(F)(F)F)n4)cc2)C(=O)[C@@H](N)CS3(=O)=O)o1)C(F)(F)F (stereo partly shown) [Example 95] was tested, and the IC50 [1] was 19000 nM, the IC50 [2] was 2420 nM and the “Emax proliferation (% activation)” value (primary human T-cells) was 104 % activation. For the same compound, the EC50 (primary human T-cells) was 1640 nM.
In the case of CC(O)(c1nnc(-c2ccc3c(c2)N(Cc2ccc(-c4noc(C(F)(F)F)n4)cc2)C(=O)[C@@H](N)CS3(=O)=O)o1)C(F)(F)F (stereo partly drawn) [Example 96, (3R)-3-amino-1,1-dioxo-7-[5-(2,2,2-trifluoro-1-hydroxy-1-methyl-ethyl)-1,3,4-oxadiazol-2-yl]-5-[[4-[5-(trifluoromethyl)-1,2,4-oxadiazol-3-yl]phenyl]methyl]-2,3-dihydro-1λ^6,5-benzothiazepin-4-one], the IC50 [1] is reported as 24600 nM, the IC50 [2] is reported as 3380 nM and the “Emax proliferation (% activation)” value (primary human T-cells) is reported as 103 % activation. For the same compound, the EC50 (primary human T-cells) was 174 nM.
For CC(C)(C#N)c1nnc(-c2ccc3c(c2)N(Cc2ccc(-c4cnc(C(F)(F)F)nc4)cc2)C(=O)[C@@H](N)CS3(=O)=O)o1 [Example 100], the IC50 [1] was over 62500 nM, the IC50 [2] was 1460 nM and the “Emax proliferation (% activation)” value (primary human T-cells) was 96 % activation. For the same compound, the EC50 (primary human T-cells) was 1900 nM.
For CC(C)(C#N)c1nnc(-c2ccc3c(c2)N(Cc2ccc(-c4noc(C5CCC(F)(F)CC5)n4)cc2)C(=O)[C@@H](N)CS3(=O)=O)o1 [Example 101, 2-[5-[(3R)-3-amino-5-[[4-[5-(4,4-difluorocyclohexyl)-1,2,4-oxadiazol-3-yl]phenyl]methyl]-1,1,4-trioxo-2,3-dihydro-1λ^6,5-benzothiazepin-7-yl]-1,3,4-oxadiazol-2-yl]-2-methyl-propanenitrile], the IC50 [1] was 25600 nM, the IC50 [2] was 192 nM and the “Emax proliferation (% activation)” value (primary human T-cells) was 175 % activation. It also gave an EC50 (primary human T-cells) of 552 nM.
In the case of CC(C)(C#N)c1nnc(-c2ccc3c(c2)N(Cc2ccc(-n4cc(C(F)(F)F)cn4)cc2)C(=O)[C@@H](N)CS3(=O)=O)o1 [Example 102, 2-[5-[(3R)-3-amino-1,1,4-trioxo-5-[[4-[4-(trifluoromethyl)pyrazol-1-yl]phenyl]methyl]-2,3-dihydro-1λ^6,5-benzothiazepin-7-yl]-1,3,4-oxadiazol-2-yl]-2-methyl-propanenitrile], the IC50 [1] is reported as 1120 nM, the IC50 [2] is reported as 747 nM and the “Emax proliferation (% activation)” value (primary human T-cells) is reported as 127 % activation. For the same compound, the EC50 (primary human T-cells) was 363 nM.
With CC(C)(C#N)c1nnc(-c2ccc3c(c2)N(Cc2ccc(-c4ncc(C(F)(F)F)o4)cc2)C(=O)[C@@H](N)CS3(=O)=O)o1 [Example 105, 2-[5-[(3R)-3-amino-1,1,4-trioxo-5-[[4-[5-(trifluoromethyl)oxazol-2-yl]phenyl]methyl]-2,3-dihydro-1λ^6,5-benzothiazepin-7-yl]-1,3,4-oxadiazol-2-yl]-2-methyl-propanenitrile] the IC50 [1] was 694 nM, the IC50 [2] was 787 nM and the “Emax proliferation (% activation)” value (primary human T-cells) was 138 % activation. It also gave an EC50 (primary human T-cells) of 391 nM.
With CC(C)(C#N)c1nnc(-c2ccc3c(c2)N(Cc2ccc(-c4ccc(C(F)(F)F)cc4)nc2)C(=O)[C@@H](N)CS3(=O)=O)o1 [Example 106] the IC50 [1] was 14400 nM, the IC50 [2] was 2370 nM and the “Emax proliferation (% activation)” value (primary human T-cells) was 79 % activation. The EC50 (primary human T-cells) was 3790 nM.
Cn1nc(C(F)(F)F)cc1-c1ccc(CN2C(=O)[C@@H](N)CS(=O)(=O)c3ccc(-c4nnc(C(C)(C)C#N)o4)cc32)cc1 [Example 107, 2-[5-[(3R)-3-amino-5-[[4-[2-methyl-5-(trifluoromethyl)pyrazol-3-yl]phenyl]methyl]-1,1,4-trioxo-2,3-dihydro-1λ^6,5-benzothiazepin-7-yl]-1,3,4-oxadiazol-2-yl]-2-methyl-propanenitrile] was tested, and the IC50 [1] was 1300 nM, the IC50 [2] was 843 nM and the “Emax proliferation (% activation)” value (primary human T-cells) was 165 % activation. The EC50 (primary human T-cells) was 2160 nM.

From patent publication US20260138976A1 (Hoffmann-La Roche Inc., priority 2022, published 2026)
